According to patent publication US20130225611A1, “Compositions and Methods for Reducing Cancer Cell Proliferation and Modulating Importin-Beta Function” (THE REGENTS OF THE UNIVERSITY OF CALIFORNIA, priority 2011, published 2013):
Values after ≈ are worked out from the molar mass of the structure shown.

What was measured:
microtubule asters = assay: DMSO-induced aster assembly in Xenopus egg extracts; set-up: species or system Xenopus laevis; conditions: 5% DMSO
Method: (§1) Xenopus laevis egg extracts were prepared as described by Hannak et al. (2006) Nat. Protoc. 1:2305-2314. For in vitro spindle assembly, Xenopus laevis sperm DNA was added to egg extracts supplemented with rhodamine-labeled tubulin. Asters were formed by addition of 5% DMSO. DNA was stained with Hoechst dye. The formation of microtubule-based structures was assessed using epifluorescence microscopy after a 30-minute room temperature incubation. In vitro microtubule polymerization and pelleting assays were performed by incubating 25 μM bovine tubulin, 1 mM GTP, and 5% DMSO in BRB80 buffer (80 mM PIPES, 1 mM MgCl2, 1 mM EGTA, pH 6.8) at 37° C. for 30 minutes. Polymerized microtubules were pelleted through a sucrose cushion, resuspended, and analyzed by SDS PAGE.

[1] = tested on: mitotic importin-β cargo release; assay: Rango-3 FRET sensor FLIM in mitotic HeLa cells; format: cell-based, human; conditions: DMSO controls 0.12+/−0.4 ns
Text: A key feature of importazole, a cell-permeable importin-β/RanGTP inhibitor, is its ability to dissect novel roles of this pathway in dividing human cells, which also provide a system to analyze mitotic gradients of released cargos using FRET probes. If importazole disrupts the interaction of importin-β with RanGTP, then the chromatin-localized FRET gradient of the cargo probe Rango should be reduced, since it undergoes FRET when released from importin-β in HeLa cells. […] Thus, importazole impairs mitotic importin-β cargo release in HeLa cells.
The Rango-3 FRET sensor is an improved version of Rango and was created by replacing Cerulean-EYFP donor-acceptor pair in Rango with EGFP as a donor and non-fluorescent acceptor sREACh which was modified by the introduction of mild dimerization mutations. […] The emission was collected from a custom side port, filtered through a 525 nm bandpass filter (ET525/50 Chroma) and detected by a HPM-100-40 module (Becker & Hickl) containing a hybrid Hamamatsu R10467-40 GaAsP photomultiplier. Two to three days before the experiment, HeLa cells were transfected with a pSG8 plasmid containing the Rango-3 open reading frame (pK135) to induce sensor expression. […] Fluorescence lifetime images were produced and analyzed using SPCI software (Becker & Hickl).

[2] = tested on: importin-β/RanGTP-mediated nuclear import; assay: nuclear import of GFP-NLS reporter in permeabilized HeLa cells; format: cell-based, human; conditions: 100 μM importazole, permeabilized HeLa cells plus Xenopus egg extract
Method: Because importazole binds importin-β and affects the RanGTP/importin-β interaction, importazole was tested to determine whether it inhibits the nuclear import of any protein bearing a classical nuclear localization signal (NLS). This was first tested using permeabilized HeLa cells, in which nuclear import of a GFP-NLS reporter can be reconstituted in vitro. Digitonin-permeabilized cells were incubated with a GFP-NLS reporter plus Xenopus laevis egg extracts as a source of soluble transport factors including Ran, importin-α, and importin-β.
HeLa cells were permeabilized and treated with an import reporter and cytosol from Xenopus laevis […] as described by Adam et al. (1990) J. Cell Biol. 111:807-816.

solubility in water = format: physicochemical
[3] = tested on: importin-β-mediated nuclear import; assay: ionomycin-induced NFAT-GFP nuclear import in HEK 293 cells; format: cell-based, human
Text: To investigate whether importazole is cell permeable and active in living human cells, a cell line was generated that stably expresses a GFP-tagged version of the transcription factor NFAT (nuclear factor of activated T cells), which shuttles between the nucleus and the cytoplasm in a calcium-regulated manner and is imported by importin-α/β and exported by CRM1. At steady state NFAT is predominantly cytoplasmic. An increase in cytoplasmic calcium induced by the ionophore ionomycin leads to the accumulation of NFAT in the nucleus (FIG. 4A). NFAT import can be reverted upon ionophore withdrawal, (FIG. 5A) providing an inducible system ideal for testing the effects of importazole on importin-β-mediated nuclear import and CRM1-mediated nuclear export, both of which are dependent upon RanGTP.
Cells were pretreated with 40 μM importazole for 1 hour followed by 30 minutes of ionomycin treatment in the continued presence of importazole. […] Thus, it is possible to use importazole in drug-washout experiments to study the Ran/importin-β pathway in cells.
A GFP-NFAT expression plasmid (pKW520) was generated by inserting a BamH I/Hind III-cleaved NFATC1 cDNA fragment into pEGFP-C1 (Clontech) digested with Bgl II and Hind III. The construct was stably transfected into HEK 293 cells and a single clone expressing moderate levels of NFAT-GFP was selected and maintained in Opti-mem media (Gibco) plus 4% fetal bovine serum, 1% penicillin/streptomycin, and 200 μg/ml G418. HeLa cells were grown and maintained according to standard protocols.
For all import and export experiments, HEK 293 cells stably expressing NFAT-GFP were grown on glass coverslips to approximately 50% confluency prior to drug treatment. In all cases, importazole was used at 40 μM and leptomycin B was used at 10 ng/ml. For controls, DMSO was used at a concentration of 0.4%. Ionomycin was added at 1.25 μM. Importazole and leptomycin B treatments were all for 1 hour. In all experiments cells were fixed with 4% formaldehyde prior to fluorescence microscopy. DNA was visualized with 1 μg/ml Hoechst dye.

bovine tubulin = assay: pure tubulin polymerization and pelleting assay; format: biochemical; conditions: 25 μM bovine tubulin, 5% DMSO, pelleting, SDS PAGE
Method: as §1

CC(Nc1nc(N2CCCC2)nc2ccccc12)c1ccccc1 (centres unmarked) [importazole, (1-phenyl-ethyl)-(2-pyrrolidin-1-yl-quinazolin-4-yl)-amine]
formation of microtubule asters induced by DMSO in the extract (microtubule asters): did not impair the formation of microtubule asters | difference in fluorescence lifetime of Rango-3 donor GFP between chromosomes and distal cytoplasm [1]: 0.07+/−0.03 ns | nuclear import of GFP-NLS reporter [2]: blocked import | solubility (solubility in water): ~100 µM (≈ 31.8 µg/mL) | nuclear accumulation of NFAT-GFP after ionomycin addition ([3]; HEK 293, 40 μM, 1 hour pretreatment then 30 minutes ionomycin): virtually no import of NFAT-GFP | IC50 ([3]; Homo sapiens, HEK293, HEK 293 cells stably expressing NFAT-GFP, read-out: IC50 for inhibition of NFAT-GFP import): ~15 µM | reversibility of NFAT-GFP import inhibition ([3]; washout, 1 hour recovery before ionomycin): reversible upon importazole washout | polymerization of pure microtubules (bovine tubulin): does not Affect Pure Microtubules
